# From patent US20120108632A1, “[…] INHIBITORS FOR OCULAR HYPERTENSION CONTROL AND THE TREATMENT OF GLAUCOMA” (ALCON RESEARCH, LTD., priority 2006, published 2012)
# Tests used:
# GGTase = GGTase (Homo sapiens, UniProt P53609); settings: cited from earlier work
# [1] = system: PAI-1 gene expression in TM cell lines; assay: TGFβ2-induced PAI-1 gene expression by QRT-PCR in TM cells; format: cell-based, human; settings: TM cell lines treated with TGFβ2 and inhibitor, versus TGFβ2 alone; FIG. 3
# Source text: (§1) Total RNA was isolated from TM cells using Qiagen RNeasy 96 system according to the manufacturer's instructions (Qiagen).
# Differential expression of CTGF and PAI-1 were verified by quantitative real-time RT-PCR (QRT-PCR) using an ABI Prism® 7700 Sequence Detection System (Applied Biosystems) essentially as previously described (Shepard et al., IOVS, 2001, Vol. 42:3173). Primers for CTGF amplification were designed using Primer Express software (Applied Biosystems) to anneal to adjacent exons of Genbank accession #NM_001901.1 ([…] (SEQ ID NO: 1), nts 1667-1689 and […] (SEQ ID NO: 2), nts 1723-1742, with probe sequence 6FAM-[…]-TAMRA (SEQ ID NO: 3)) and generate a 76-bp amplicon. Primers for PAI-1 amplification were purchased from ABI (Hs00167155 ml) and correspond to Genbank accession #NM_000602.1. […] Quantification of relative RNA concentrations was done using the delta delta Ct method as described in PE Biosystems User Bulletin #2. Levels of amplified products were expressed as mean±SEM of quadruplicate QRT-PCR assays. […]
# (§2) In this example, the effectiveness of GGTase and FTase inhibitors on CTGF gene expression in cultured human trabecular meshwork cells was studied. In this experiment, the CTGF/18S cDNA levels were measured and compared by QRT-PCR according to the protocol of Example 1.
# [2] = system: CTGF gene expression in cultured human trabecular meshwork cells; assay: Basal and TGFβ2-induced CTGF gene expression by QRT-PCR in TM cells; format: cell-based; settings: for measured CTGF levels (CTGF/18S cDNA) compared to TGFβ2-treated cells: TM cells treated with TGFβ2 and inhibitor, versus TGFβ2 alone, FIGS. 1 and 2
# Source text: as §1
# Differential expression of CTGF and PAI-1 were verified by quantitative real-time RT-PCR (QRT-PCR) using an ABI Prism® 7700 Sequence Detection System (Applied Biosystems) essentially as previously described (Shepard et al., IOVS, 2001, Vol. 42:3173). Primers for CTGF amplification were designed using Primer Express software (Applied Biosystems) to anneal to adjacent exons of Genbank accession #NM_001901.1 ([…] (SEQ ID NO: 1), nts 1667-1689 and […] (SEQ ID NO: 2), nts 1723-1742, with probe sequence 6FAM-[…]-TAMRA (SEQ ID NO: 3)) and generate a 76-bp amplicon. Primers for PAI-1 amplification were purchased from ABI (Hs00167155 ml) and correspond to Genbank accession #NM_000602.1. Amplification of CTGF or PAI-1 was normalized to 18S ribosomal RNA expression using primers designed to the 18S rRNA gene (GenBank accession #X03205 […] (SEQ ID NO: 4), nts 1680-1700 and […] (SEQ ID NO: 5), nts 1730-1749, with probe sequence 6FAM-[…]-MGBNFQ (SEQ ID NO: 6)) which generates a 69-bp amplicon. CTGF or PAI-1 QRT-PCR was performed in multiplex with 18S primer/probe sets in a 50 ul final volume consisting of 40 nM 18S or 900 nM CTGF or PAI-1 primers; 100 nM 18S probe or 100 nM CTGF or 250 nM PAI-1 probe; 5 ul RNA; 1× Multiscribe and RNase Inhibitor Mix (ABI); and 1× TaqMan® Universal Mix (ABI). Thermal cycling conditions consisted of 48° C., 30 min, 95° C. 10 min followed by 40 cycles at 95° C., 15 sec, 60° C., 1 min. […] Quantification of relative RNA concentrations was done using the delta delta Ct method as described in PE Biosystems User Bulletin #2. Levels of amplified products were expressed as mean±SEM of quadruplicate QRT-PCR assays. […]
# as §2
# Ftase = Ftase (Homo sapiens, UniProt P49356); settings: cited from earlier work
# [3] = system: lactate dehydrogenase (LDH) release into culture media; assay: CytoTox-ONE Homogenous Membrane Integrity Assay (LDH release); format: cell-based; settings: conclusion from LDH release; FIG. 4
Structure (SMILES),IC50 (GGTase),measured PAI-1 compared to TGFβ2-treated cells [1],measured CTGF levels (CTGF/18S cDNA) compared to TGFβ2-treated cells [2],IC50 (Ftase),cytotoxicity [3],"measured CTGF levels (CTGF/18S cDNA) compared to vehicle alone ([2]; TM cell cultures treated with TGFβ2 and inhibitor, versus vehicle alone, FIG. 1)"
CSCC[C@H](NC(=O)c1ccc(NC[C@@H](N)CS)cc1-c1ccccc1)C(=O)O [FTI-276],50 nM,–,–,–,–,–
COC(=O)[C@H](CCSC)NC(=O)c1ccc(NC[C@@H](N)CS)cc1-c1ccccc1 [FTI-277],–,able to produce drops in measured PAI-1,produces a drop in measured CTGF levels,100 nM,relatively low cytotoxicity,–
CSCC[C@H](NC(=O)c1ccc(NC(=O)[C@@H](N)CS)cc1)C(=O)O [Ftase Inhibitor II],–,–,–,50 nM,–,–
CSCC[C@H](NC(=O)[C@H](Cc1ccccc1)NC[C@@H](NC[C@@H](N)CS)C(C)C)C(=O)O [Ftase Inhibitor I],790 nM,–,–,21 nM,–,–
COC(=O)[C@H](CC(C)C)NC(=O)c1ccc(NC[C@@H](N)CS)cc1-c1ccccc1 [GGTI-286],2000 nM,–,–,–,–,–
CC(C)C[C@H](NC(=O)c1ccc(NC[C@@H](N)CS)cc1-c1cccc2ccccc12)C(=O)O [GGTI-297],50 nM,–,–,200 nM,–,–
COC(=O)[C@H](CC(C)C)NC(=O)c1ccc(NC[C@@H](N)CS)cc1-c1cccc2ccccc12 [GGTI-298],3000 nM,–,–,–,–,–
CC(C)C[C@H](NC(=O)c1ccc(NCc2cnc[nH]2)cc1-c1cccc2ccccc12)C(=O)O [GGTI-2133],38 nM,able to produce drops in measured PAI-1,dramatically reduced CTGF levels,5400 nM,relatively low cytotoxicity,lower than with vehicle alone
COC(=O)[C@H](CC(C)C)NC(=O)c1ccc(NCc2cnc[nH]2)cc1-c1cccc2ccccc12 [GGTI-2147],500 nM,–,–,30000 nM,–,–
